Data: US5646316A, “Bile acid inhibitors of metalloproteinase enzymes” (OsteoArthritis Sciences, Inc., priority 1995, dated 1997)
Read-outs that look alike come from different tables or passages of the source.

Experiments:
stromelysin = stromelysin (Homo sapiens, UniProt P08254); experiment: Assay of Stromelysin Inhibition Activity (fluorogenic substrate hydrolysis); format: biochemical; conditions: for inhibition at 10 µM: read-out: percent inhibition of stromelysin
Method: (§1) Stromelysin was first activated by trypsin. This was done by preparing a reaction mixture in B-150 (B-150 consists of 150 mM NaCl, 20 mM Tris at pH 7.8 and 0.02% sodium azide) containing a final concentration of 4 μg/mL trypsin, 1.48 μg/mL of stromelysin, and 3.15 mM CaCl2. The reaction was incubated for 30 minutes at 37° C. and then quenched by adding soybean trypsin inhibitor to a final concentration of 43.6 μg/mL. ZnCl2 was added to the reaction mixture for a total concentration of 0.24 μM.
(§2) Following preparation of the solution of activated stromelysin, assay solutions were prepared for each inhibitor being tested. A control was also prepared. First, […] of activated stromelysin (about 45 μL from the solution of activated stromelysin) were aliquotted per assay tube. A 2.5 mM solution in 100% dimethyl sulfoxide (DMSO) was prepared for each inhibitor being tested and 1 μL from each inhibitor solution was added to one of the assay tubes. In addition, 1 μL of 100% DMSO was added to the control assay tube. All assay tubes were then pre-incubated for 5 minutes.
(§3) 5 μL of a previously prepared 50 μM solution of substrate in 15% DMSO were added to each assay tube. The substrate was a methoxycumarin developed by Knight et al. FEBS Lett. 296:263-66 (1992). The tubes were then incubated for 60 minutes, at which time the reaction was stopped with the addition of 750 μL of 0.1M NaAc pH 4.0 buffer.
(§4) Substrate hydrolysis was assessed by fluorescence using a slit width of 10:10, excitation at 328 nm and emission at 393 nm. The results of these assays are listed in Table I as percent inhibition at 10 μM of the bile acid provided compound tested or as the IC50.

chondrocytes = experiment: Chondrocyte Cell Culture Matrix Breakdown Assay (35S release, rhIL-1α stimulated); format: cell-based, calf; conditions: Bos taurus, Chondrocyte, read-out: percent inhibition, Cell Culture
Method: A cell culture assay was used to measure the ability of compounds to slow the degradation of the extracellular matrix by a metalloproteinase. This assay measured the amount ^35 S released from chondrocytes grown in a media with ^35 S labeled sodium sulfate. The cell culture assay was carried out as follows:
Two or three 1 to 3 week old calf joints were obtained from an abattoir. The proximal end of the shank was at about 4-5" long to facilitate immobilization in the holder. The joint was kept cool and transported on ice. The exterior of the intact joints was washed well with a suitable anti-microbial soap, rinsed clean with warm water, rinsed in betadine and then finally rinsed with 70% ethanol. Up to this point all steps were done in a manner to ensure that the joint was kept as clean as possible. All subsequent steps were performed in a sterile field (i.e., in a Edgeguard laminar flow tissue culture hood). The joint was immobilized and the synovial fluid was aspirated with a needle and syringe. The joint was then cut open to expose the articular cartilage using a #21 scalpel. Using locking hemostats, forceps and a #15 scalpel, the cartilage was excised in full thickness pieces. Care was taken not to cut too deep because bleeding would have occurred if the subchondral bone, was penetrated. The cartilage pieces were placed into a 50 mL centrifuge tube containing 25 mL of Delbecco's phosphate buffered saline (D-PBS) supplemented with 1% antibiotic solution (penicillin, streptomycin and fungizone; GIBCO/BRL). The slices from each joint were then placed into separate 50 mL centrifuge tubes. The D-PBS was decanted and replaced with 25 mL of fresh D-PBS supplemented with antibiotics and subsequently agitated gently.
The cartilage pieces were transferred to a fresh 50 mL centrifuge tube and rinsed once more with 25 mL of D-PBS minus antibiotics. An enzymatic digestion solution containing 1 mg/mL of hyaluronidase in serum-free 1:1 DMEM/Ham's F-12 (DMEM/F12) was prepared. This solution was filter sterilized with […] Milex--GV filter and kept on ice until ready to use. The cartilage pieces were digested with approximately 5 mL of hyaluronidase solution per joint for 2×15 minutes at 37° C. in the 50 mL centrifuge tube with gentle agitation at the 15 minute mark. This procedure removed residual hyaluronic acid from the surface of the chips. The enzymatic digestion solution was then aspirated and the cartilage pieces were rinsed with 25 mL of D-PBS.
A second enzymatic digestion solution containing 2.5 mg trypsin and 2 mg collagenase P per mL serum-free DMEM/F12 was prepared. This solution was also filter sterilized with a […] Millex--GV filter and kept on ice until ready to use. The cartilage pieces were digested with approximately 5 mL of trypsin: collagenase solution per joint for 2×15 minutes at 37° C. in the 50 mL centrifuge tube with gentle agitation at the 15 minute mark. This procedure removed the synovial fibroblasts and any adherent connective tissue from the surface of the chips. The enzymatic digestion solution was then carefully removed and saved and the cartilage pieces were rinsed with 25 mL of D-PBS.
A third enzymatic solution containing 2 mgs of collagenase P (BMB) per mL serum-free DMEM/F12 was prepared. This solution was filter sterilized with a […] Millex--GV filter and kept on ice until ready to use. The pre-digested cartilage pieces were finally digested with approximately 20 mL of enzymatic digestion solution per joint for 5-6 hours at 37° C. in a Bellco stirring digestion flask, at which point the cartilage was fully digested away.
The enzymes in the synovial fibroblast and chondrocyte digest were neutralized by addition of an equal volume of DMEM/F12 supplemented with 5% fetal bovine serum. Fibroblasts were plated in DMEM at a cellular density of 6.6×10^3 cells per cm^2. […]

collagenase = experiment: Assay of Collagenase Inhibition Activity; format: biochemical; conditions: at 10 μM of compound; 45 minutes at 37° C.
Method: as §1, §2, §3, §4
The assay procedure for collagenase was the same as described in Example 13 for stromelysin except that the trypsin activation was performed for 45 minutes. In addition, the incubation of the assay tubes at 37° C. was only for 45 minutes, and the final enzyme concentration is 6 nm. The results of these assays are provided in Table I as percent inhibition at 10 μM of the compound tested.

[1] = test system: bovine cartilage explants; experiment: Bovine Cartilage Explant Assay (35S-GAG release, rhIL-1α stimulated; tissue culture); format: cell-based; conditions: Bos taurus; at 50 μM; rhIL-1α 5 ng/mL; 3-4 days; read-out: percent inhibition of extracellular matrix damage, Tissue Culture
Text: A tissue culture assay was used to measure the ability of the compounds of the present invention to slow the degradation of the extracellular matrix by metalloproteinases. This assay measured the amount of ^35 S-glycosaminoglycan (^35 S-GAG) released from labeled bovine cartilage explants.
Knee joints from a 1 to 3 week old calf were obtained immediately after sacrifice from the Abattoir and then transported on ice. The intact joints were washed well with tap water and soaked in 50% (v/v) Povidine iodine solution, obtained from Burre National, Inc., Baltimore, Md. All subsequent steps were performed in a laminar flow tissue culture hood using standard sterile technique. The joint was immobilized in a shank holder and the joint capsule was cut open to expose the articular cartilage. Cartilage explant plugs, approximately 15 mg wet weight, were removed from the flat articulating surfaces in the lower-most region of the knee joint using a sterile steel cork-borer and collected in a 250 mL roller bottle containing about 100 mL fresh Delbecco's minimum essential medium (DMEM), obtained from Gibco BRC, Life Technologies, Gaithersburg, Md., containing 4.5 g/1 (D)-glucose and (L)-glutamine, without sodium pyruvate. The fresh media also contained enough Hepes buffer and sodium bicarbonate such that the pH was about 7.4. The media was then further supplemented just before use with 100 units Penicillin, 100 μg Streptomycin, and 50 μg (L)-ascorbic acid per mL of medium.
Once collected, the explant plugs were washed four times with 50 mL fresh DMEM. The plugs were then placed in the incubator for a minimum of 1 hour to equilibrate, before proceeding to make disks from the articulating surface of each plug. A 1 mm thick disk was sliced from individual plugs from the end that was the articulating surface of the joint. The plug was held steady in the sterile template (4 mm diameter×1.5 mm deep) using sterile forceps. A scalpel blade was used to carefully slice off the disk. Only the superficial articulating surface responded well in culture.
Individual disks obtained were transferred to a tissue culture flask containing about 100 mL fresh media. The flask containing the disks was placed in an incubator at 37° C. (with 5% CO2, 95% air) and allowed to equilibrate overnight and at least one additional day before labeling. When ready to label, the old media was replaced with 50 mL fresh media containing about 500 μCi ^35 S-Sodium Sulfate. The plugs were labeled in bulk for about 48 hours. The next morning, the "hot" media was removed and replaced with fresh "cold" media. The disks were again allowed to equilibrate overnight before being used for actual experiments.
The media in which the disks were stored was changed immediately prior to performing the assay. The disks were then returned to the incubator until the test media and the two control media had been prepared. The test media consisted of a bile acid or bile acid derivative (50 μM) being tested for its ability to inhibit extracellular matrix degradation and concomitant recombinant human Interleukin rhIL-1α (5 ng/mL) in fresh DMEM solution. The control media were identical to the test media, except that the first control media lacked rhIL-1α and the second control media lacked an inhibitor, i.e. a bile acid or bile acid derivative. 250 μL of each of the test and control media were transferred to separate 96-well TC plates. Flamed forceps were used to transfer a disk from the incubator to each 96-well TC plates that had been filled with either the test media or one of the two control media.
The TC plates were then placed in the incubator and cultured for 3-4 days (initial incubation with rhIL-1α alpha takes at least 3 days to stimulate endogenous metalloproteinases). A 50 μL aliquot of media from each TC plate was saved and counted. The rest of the media was removed with a suction device.
The cartilage disks from each TC plate were also saved for counting. […]

[2] = at 50 μM, rhIL-1α 1 ng/ml, 22-24 hours

Chain of stromelysin (P08254 100-477): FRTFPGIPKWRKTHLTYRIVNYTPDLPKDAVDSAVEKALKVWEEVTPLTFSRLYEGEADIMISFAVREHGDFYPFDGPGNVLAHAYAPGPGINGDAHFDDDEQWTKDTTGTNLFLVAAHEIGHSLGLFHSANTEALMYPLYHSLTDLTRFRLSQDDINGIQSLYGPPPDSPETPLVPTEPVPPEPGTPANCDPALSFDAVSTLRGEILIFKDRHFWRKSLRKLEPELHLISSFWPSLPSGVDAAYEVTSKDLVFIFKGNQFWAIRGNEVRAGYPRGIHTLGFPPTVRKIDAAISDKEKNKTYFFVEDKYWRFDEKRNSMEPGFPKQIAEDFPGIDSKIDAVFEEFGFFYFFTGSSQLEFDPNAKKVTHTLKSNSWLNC

Question: `C[C@H](CCC(=O)O)[C@H]1CC[C@H]2[C@@H]3CC[C@@H]4C[C@H](O)CC[C@]4(C)[C@H]3C[C@H](O)[C@]12C` [Compound 2, deoxycholic acid, reference compound] was tested. Which inhibition at 10 µM (stromelysin) did it give?
Answer: 23%

Question: And the inhibition at 50 µM (chondrocytes; [2])?
Answer: -14%

Question: For `C[C@H](CCC(=O)O)[C@H]1CC[C@H]2[C@@H]3[C@H](O)C[C@@H]4C[C@H](O)CC[C@]4(C)[C@H]3CC[C@]12C` [Compound 6, Chenodeoxycholic acid, reference compound], which “percent inhibition of collagenase” value (collagenase) is on record?
Answer: 6%

Question: And the inhibition at 50 µM [1]?
Answer: 23%

Question: For `C[C@H](CCC(=O)NO)[C@H]1CC[C@H]2[C@@H]3[C@H](O)C[C@@H]4C[C@H](O)CC[C@]4(C)[C@H]3CC[C@]12C` [Compound 14, Chenodeoxycholyhydroxamic Acid], which “percent inhibition of collagenase” value (collagenase) is on record?
Answer: 19%

Question: What about the inhibition at 50 µM (chondrocytes; [2]) of the same compound?
Answer: 77%

Question: With `C[C@H](CCC(=O)N[C@@H](CCc1ccccc1)C(=O)NO)[C@H]1CC[C@H]2[C@@H]3CC[C@@H]4C[C@H](O)CC[C@]4(C)[C@H]3CC[C@]12C` [Compound 27, Lithocholyl-(L)-homophenylalanine Hydroxamic Acid] as the compound, how does the inhibition at 10 µM (stromelysin; at 10 μM of compound) read?
Answer: 90%

Question: What does the source list for `C[C@H](CCC(=O)NO)[C@H]1CC[C@H]2[C@@H]3[C@H](O)C[C@@H]4C[C@H](O)CC[C@]4(C)[C@H]3C[C@H](O)[C@]12C` [Compound 23, Cholylhydroxamic Acid]?
Answer: inhibition at 10 µM (stromelysin; at 10 μM of compound): 12%; inhibition at 50 µM (chondrocytes; [2]): -20%

Question: Which results are given for `C[C@H](CCC(=O)O)[C@H]1CC[C@H]2[C@@H]3C[C@H](O)[C@@H]4C[C@H](O)CC[C@]4(C)[C@H]3CC[C@]12C` [Compound 4, hyodeoxycholic acid, reference compound]?
Answer: inhibition at 10 µM (stromelysin; at 10 μM of compound): 18%; inhibition at 50 µM (chondrocytes; [2]): 7%

Question: Which results are given for `C[C@H](CCC(=O)O)[C@H]1CC[C@H]2[C@@H]3[C@@H](O)C[C@@H]4C[C@H](O)CC[C@]4(C)[C@H]3CC[C@]12C` [Compound 3, ursodeoxycholic acid, reference compound]?
Answer: inhibition at 10 µM (stromelysin; at 10 μM of compound): 21%; inhibition at 50 µM (chondrocytes; [2]): 5%

Question: With `C[C@H](CCC(=O)N[C@H](Cc1ccccc1)C(=O)NO)[C@H]1CC[C@H]2[C@@H]3CC[C@@H]4C[C@H](O)CC[C@]4(C)[C@H]3CC[C@]12C` [Compound 22, Lithocholyl-(D)-Phenylalanine Hydroxamic Acid] as the compound, how does the IC50 (stromelysin; 60 minutes incubation) read?
Answer: 1200 nM

Question: And the inhibition at 50 µM (chondrocytes; [2])?
Answer: 5%

Question: `C[C@H](CCC(=O)N[C@H](CCc1ccccc1)C(=O)NO)[C@H]1CC[C@H]2[C@@H]3CC[C@@H]4C[C@H](O)CC[C@]4(C)[C@H]3CC[C@]12C` [Compound 28, Lithocholyl-(D)-homophenylalanine Hydroxamic Acid] was tested. Which inhibition at 10 µM (stromelysin; at 10 μM of compound) did it give?
Answer: 92%

Question: Which inhibition at 10 µM (stromelysin) does the source give for `C[C@H](CCC(=O)NCCC[N+](C)(C)CC(O)CS(=O)(=O)[O-])[C@H]1CC[C@H]2[C@@H]3[C@H](O)C[C@@H]4C[C@H](O)CC[C@]4(C)[C@H]3C[C@H](O)[C@]12C` (stereo partly drawn) [Compound 5, 3-[(3-cholamidopropyl)dimethylammonio]-2-hydroxy-1-propanesulfonate, reference compound] here?
Answer: 15%

Question: What about the inhibition at 50 µM (chondrocytes) of the same compound?
Answer: 35%
